Source: ChEMBL document CHEMBL1201862, “PubChem BioAssay data set” (2004)
The source made the active and inactive calls. For most assays here, no stated cut-off is given here; in the data, actives have a measured IC50 and inactives only a lower limit.

Experiments:
[1] = test system: INS1; experiment: beta-cell survival under cytokine stress – INS-1E, ATP luminescence, dry powder, dose response (AID 488844); type: functional, cell-based; details: Rattus norvegicus
[2] = test system: INS1; experiment: suppression of NO production in INS-1E cells – cell-based, Griess absorbance, dry powder, dose response (AID 488866); type: functional; details: Rattus norvegicus
[3] = test system: INS1; experiment: INS-1E mitochondrial potential loss inhibitors – cell-based, JC-1 fluorescence, dry powder, set 2, dose response (AID 488867); type: functional; details: Rattus norvegicus
[4] = test system: INS1; experiment: suppression of NO production in INS-1E cells – cell-based, Griess absorbance, dry powder, set 2, dose response (AID 488868); type: functional; details: Rattus norvegicus
[5] = test system: INS1; experiment: INS-1E mitochondrial potential rescue under cytokines – cell-based, JC-1 fluorescence ratio, dry powder, dose response (AID 488931); type: functional; details: Rattus norvegicus
[6] = target: T1, Sentrin-specific protease 8 (Homo sapiens, UniProt Q96LD8); experiment: inhibition of human SENP8 cleavage activity – biochemical, luminescence, SAR follow-up (AID 504501); type: functional
T1 sequence (Q96LD8 whole entry): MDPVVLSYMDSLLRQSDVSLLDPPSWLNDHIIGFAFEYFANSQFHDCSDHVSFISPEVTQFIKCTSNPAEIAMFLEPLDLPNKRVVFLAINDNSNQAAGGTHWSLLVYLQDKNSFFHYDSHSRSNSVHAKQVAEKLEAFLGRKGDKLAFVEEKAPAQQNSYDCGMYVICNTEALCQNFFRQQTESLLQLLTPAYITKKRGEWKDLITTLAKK

[7] = target: T2, Caspase-3 (Homo sapiens, UniProt P42574); experiment: inhibition of recombinant caspase-3 activity – biochemical, luminescence, set 2, selectivity assay for SENP protease inhibitor project, SAR follow-up (AID 588599); type: functional
T2 sequence (P42574 whole entry): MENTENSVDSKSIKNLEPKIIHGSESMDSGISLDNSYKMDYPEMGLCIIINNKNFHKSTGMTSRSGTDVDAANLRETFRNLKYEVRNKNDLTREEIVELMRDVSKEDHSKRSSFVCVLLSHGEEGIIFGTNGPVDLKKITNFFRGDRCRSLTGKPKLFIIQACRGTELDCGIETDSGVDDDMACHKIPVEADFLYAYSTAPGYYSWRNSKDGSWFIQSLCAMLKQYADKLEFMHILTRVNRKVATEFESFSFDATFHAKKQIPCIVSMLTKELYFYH

[8] = target: T1, Sentrin-specific protease 8; experiment: inhibition of sentrin protease 8 – biochemical, luminescence, set 2, SAR follow-up (AID 588601); type: functional
[9] = target: T2, Caspase-3; experiment: SAR Analysis of small molecule inhibitors of Sentrin-specific proteases (SENPs) using a Caspase-3 Selectivity assay. [Related pubchem assays (depositor defined):AID2540, AID2599, AID434973, AID489001]; type: functional
[10] = target: T3, Sentrin-specific protease 7 (Homo sapiens, UniProt Q9BQF6); experiment: inhibition of human SENP7 cleavage activity – biochemical, luminescence, set 2, SAR follow-up (AID 588600); type: functional
T3 sequence (Q9BQF6 whole entry): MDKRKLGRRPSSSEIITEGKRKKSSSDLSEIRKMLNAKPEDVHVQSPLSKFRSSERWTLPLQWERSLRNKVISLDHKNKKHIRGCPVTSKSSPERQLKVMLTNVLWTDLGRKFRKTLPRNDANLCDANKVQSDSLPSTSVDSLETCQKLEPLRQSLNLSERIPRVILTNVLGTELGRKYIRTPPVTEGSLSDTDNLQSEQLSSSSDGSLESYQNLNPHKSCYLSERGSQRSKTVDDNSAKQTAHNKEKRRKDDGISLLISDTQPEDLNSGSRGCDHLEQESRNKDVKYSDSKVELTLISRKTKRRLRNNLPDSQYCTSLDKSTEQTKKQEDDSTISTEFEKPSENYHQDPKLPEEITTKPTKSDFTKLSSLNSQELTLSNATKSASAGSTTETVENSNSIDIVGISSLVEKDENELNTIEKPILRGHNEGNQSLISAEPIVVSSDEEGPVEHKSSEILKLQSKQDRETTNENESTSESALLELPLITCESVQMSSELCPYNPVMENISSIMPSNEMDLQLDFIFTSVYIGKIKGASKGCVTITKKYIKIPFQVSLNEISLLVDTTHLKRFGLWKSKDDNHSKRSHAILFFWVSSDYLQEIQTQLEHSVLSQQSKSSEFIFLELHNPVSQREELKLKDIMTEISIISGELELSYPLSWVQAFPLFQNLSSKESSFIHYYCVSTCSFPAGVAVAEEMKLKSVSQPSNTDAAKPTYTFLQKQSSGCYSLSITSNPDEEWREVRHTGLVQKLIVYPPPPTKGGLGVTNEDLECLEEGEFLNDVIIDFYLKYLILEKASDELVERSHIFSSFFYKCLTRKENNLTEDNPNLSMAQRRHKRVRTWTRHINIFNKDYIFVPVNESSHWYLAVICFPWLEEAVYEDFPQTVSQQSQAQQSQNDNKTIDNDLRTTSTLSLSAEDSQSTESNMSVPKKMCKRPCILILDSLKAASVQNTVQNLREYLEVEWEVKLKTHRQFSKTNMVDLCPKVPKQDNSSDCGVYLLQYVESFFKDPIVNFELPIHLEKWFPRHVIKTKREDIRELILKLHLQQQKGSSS

[11] = target: T4, Sentrin-specific protease 6 (Homo sapiens, UniProt Q9GZR1); experiment: SAR Analysis of small molecule inhibitors of Sentrin-specific protease 6 (SENP6) using a Luminescent assay. [Related pubchem assays (depositor defined):AID2582, AID2599]; type: functional
T4 sequence (Q9GZR1 whole entry): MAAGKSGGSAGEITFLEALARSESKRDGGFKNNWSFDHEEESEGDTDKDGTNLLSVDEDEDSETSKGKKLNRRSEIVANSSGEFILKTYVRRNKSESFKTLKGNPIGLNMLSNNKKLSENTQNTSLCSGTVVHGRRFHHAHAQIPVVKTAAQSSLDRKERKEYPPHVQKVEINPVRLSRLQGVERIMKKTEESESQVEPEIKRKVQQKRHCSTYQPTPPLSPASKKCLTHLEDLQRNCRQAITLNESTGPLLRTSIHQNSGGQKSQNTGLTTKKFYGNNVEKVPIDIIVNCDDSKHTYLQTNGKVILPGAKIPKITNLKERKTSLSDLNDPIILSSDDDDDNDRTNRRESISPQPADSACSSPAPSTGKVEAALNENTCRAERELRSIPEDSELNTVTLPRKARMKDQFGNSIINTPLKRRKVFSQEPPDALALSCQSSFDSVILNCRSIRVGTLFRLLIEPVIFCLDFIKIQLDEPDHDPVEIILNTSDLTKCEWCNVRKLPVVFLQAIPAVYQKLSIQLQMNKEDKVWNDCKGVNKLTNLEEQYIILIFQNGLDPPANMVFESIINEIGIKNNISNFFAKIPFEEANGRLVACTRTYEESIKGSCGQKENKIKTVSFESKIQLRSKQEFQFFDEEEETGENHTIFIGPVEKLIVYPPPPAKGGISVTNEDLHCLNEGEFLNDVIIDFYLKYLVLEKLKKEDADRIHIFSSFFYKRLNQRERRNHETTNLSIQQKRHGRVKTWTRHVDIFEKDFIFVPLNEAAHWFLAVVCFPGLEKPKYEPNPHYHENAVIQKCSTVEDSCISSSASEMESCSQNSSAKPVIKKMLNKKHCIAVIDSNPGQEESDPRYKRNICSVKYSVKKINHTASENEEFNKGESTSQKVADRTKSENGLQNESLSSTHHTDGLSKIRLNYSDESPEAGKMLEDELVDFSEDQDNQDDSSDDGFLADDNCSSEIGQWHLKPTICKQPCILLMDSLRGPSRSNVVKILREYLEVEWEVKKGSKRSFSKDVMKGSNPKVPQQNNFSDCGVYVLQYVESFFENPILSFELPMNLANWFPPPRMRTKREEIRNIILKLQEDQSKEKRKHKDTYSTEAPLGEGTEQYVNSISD

[12] = target: T4, Sentrin-specific protease 6; experiment: inhibition of human SENP6 catalytic domain – biochemical, luminescence, set 2, SAR follow-up (AID 588598); type: functional
[13] = target: T3, Sentrin-specific protease 7; experiment: inhibition of human SENP7 cleavage activity – biochemical, luminescence, SAR follow-up (AID 504497); type: functional

Row | SMILES | AC50 [1] | AC50 [2] | AC50 [3] | AC50 [4] | AC50 [5] | IC50 [6] | IC50 [7] | IC50 [8] | IC50 [9] | IC50 [10] | IC50 [11] | IC50 [12] | IC50 [13]
1 | C[C@@H]1CN([C@@H](C)CO)C(=O)c2cccc(NC(=O)Nc3cccc4ccccc34)c2O[C@H]1CN(C)S(=O)(=O)c1ccc(Cl)cc1 | 31.1 µM (active) | > 195 µM (inactive) | 90.1 µM (active) | 44.2 µM (active) | 41.3 µM (active) |  |  |  |  |  |  |  | 
2 | CCCCc1ccc2nc(NC(=O)c3cccs3)sc2c1 |  |  |  |  |  | 2.1 µM (active) | 4.01 µM (active) | 2.07 µM (active) | 4.4 µM (active) | 2.22 µM (active) | 1.9 µM (active) | 2.04 µM (active) | 1.5 µM (active)
